Laboratory results as given in paper PMC3025325, “Identification of a κ-opioid agonist as a potent and selective lead for drug development against human African trypanosomiasis” (Biochemical Pharmacology, 2010).
Counter-ions that a name gives are not always drawn. Like-named read-outs stand apart in the source and are kept apart here.

How the values were obtained:
[1] = test system: bloodstream forms of Trypanosoma brucei; assay: Resazurin cell viability assay, EC50 determinations against T. brucei; type: cell-based, T. b. brucei (strain 427)
MRC5 cells = assay: Resazurin cell viability counter-screen, EC50 determinations against mammalian cells; type: cell-based, human
[2] = Trypanosoma brucei, 72 h, read-out: EC50 vs. T. brucei
[3] = Homo sapiens, MRC5, 72 h, read-out: EC50 vs. MRC5
[4] = Trypanosoma brucei, 72 h, read-out: EC50 of standard drugs against T. brucei
[5] = read-out: EC50 of standard drugs against T. brucei
[6] = Trypanosoma brucei, 72 h, LOPAC hits (library screening), 3 days incubation, mean of 3 determinations weighted to standard error, read-out: EC50 vs. T. brucei
[7] = Trypanosoma brucei, 72 h, LOPAC hits, 3 days incubation, mean of 3 determinations weighted to standard error, read-out: EC50 vs. T. brucei

| Compound | EC50 [1, 2] | Selectivity (MRC5 cells) | also measured |
| --- | --- | --- | --- |
| c1ccc2c(c1)[I+]c1ccccc1-2 [Diphenyleneiodonium chloride] | 0.12 ± 0.0076 µM | 5.7 | EC50 (MRC5 cells; [3]): 0.7 ± 0.87 µM |
| N=C(N)SCCc1cccc(CCSC(=N)N)c1 [1,3-PBIT dihydrobromide, Phenylene-1,3-bis(ethane-2-isothiourea) dihydrobromide] |  |  | EC50 ([1]; read-out: EC50 vs. T. brucei): 1.58 ± 0.08 µM |
| CC(C)[C@@]1(NC(=O)[C@@H]2C[C@@H]3c4cccc5[nH]cc(c45)C[C@H]3N(C)C2)O[C@@]2(O)[C@@H]3CCCN3C(=O)[C@H](Cc3ccccc3)N2C1=O.CS(=O)(=O)O [Dihydroergocristine methanesulfonate] |  | 23 | EC50 ([1]; read-out: EC50 vs. T. brucei): 0.89 ± 0.057 µM |
| CC1CS(=O)(=O)CCN1/N=C/c1ccc([N+](=O)[O-])o1 (stereo not drawn) [nifurtimox] |  |  | EC50 [1, 4]: 1.8 µM; EC50 [1, 5]: 1.81 ± 0.13 µM |
| Br.CN1Cc2sccc2C(c2ccc(O)c(O)c2)C1 (stereo not drawn) [SKF 89145 hydrobromide, 4-(3,4-Dihydroxyphenyl)-6-methyl-4,5,6,7-tetrahydrothieno[2,3-c]pyridine HBr] | 0.61 ± 0.044 µM | 4.7 | EC50 (MRC5 cells; [3]): 2.9 ± 0.2 µM |
| O=C(O)c1cc[c]([Hg][Cl])cc1 [4-Chloromercuribenzoic acid] |  | 27 | EC50 ([1]; read-out: EC50 vs. T. brucei): 0.69 ± 0.085 µM |
| C[n+]1cc2c3c(ccc2c2ccc4cc5c(cc4c21)OCO5)OCO3 [Sanguinarine chloride] | 0.24 ± 0.017 µM | 5.8 | EC50 (MRC5 cells; [3]): 1.4 ± 0.35 µM |
| Nc1ncnc2c1nc(Sc1ccc(Cl)cc1)n2C1OC2COP(=O)(O)O[C@H]2C1O (stereo in doubt) [8-(4-Chlorophenylthio)-cAMP sodium] |  | 44 |  |
| O=[N+]([O-])c1ccc(CSc2ncnc3c2ncn3[C@@H]2O[C@H](CO)[C@@H](O)[C@H]2O)cc1 [S-(4-Nitrobenzyl)-6-thioinosine] | 3.78 ± 0.55 µM |  |  |
| CCCN(CCC)CCc1ccc(O)c(O)c1 [Dipropyldopamine hydrobromide] | 1.29 ± 0.06 µM |  |  |
| O=C1Nc2ccccc2/C1=C1/Nc2ccccc2/C1=N\O [Indirubin-3′-oxime] |  |  | EC50 ([1]; read-out: EC50 vs. T. brucei): 1.28 ± 0.09 µM |
| O=C1Cc2c([nH]c3ccc(Br)cc23)-c2ccccc2N1 [Kenpaullone] | 1.86 ± 0.27 µM |  |  |
| CC[C@@]1(O)C(=O)OCc2c1cc1n(c2=O)Cc2cc3ccccc3nc2-1 [(S)-(+)-Camptothecin] |  | 1.5 | EC50 ([1]; read-out: EC50 vs. T. brucei): 0.53 ± 0.013 µM; EC50 (MRC5 cells; read-out: EC50 vs. MRC5): 0.8 ± 0.099 µM |
| CC[C@H]1CN2CCc3cc(OC)c(OC)cc3[C@@H]2C[C@@H]1C[C@H]1NCCc2cc(OC)c(OC)cc21 [Emetine dihydrochloride hydrate] |  |  | EC50 [1, 6]: 0.0079 ± 0.00053 µM; EC50 (MRC5 cells; Homo sapiens, MRC5, 72 h, 3 days incubation, mean of 4 determinations weighted to standard error, read-out: EC50 vs. MRC5): 0.03 ± 0.0031 µM |
| Nc1ncnc2c1nc(Sc1ccc(Cl)cc1)n2[C@H]1OC2COP(=O)(O)O[C@H]2[C@@H]1O (stereo partly drawn) [8-(4-Chlorophenylthio)-cAMP sodium] |  |  | EC50 ([1]; read-out: EC50 vs. T. brucei): 0.4 ± 0.054 µM |
| O=C1c2c(O)ccc(O)c2C(=O)c2c(NCCNCCO)ccc(NCCNCCO)c21 [Mitoxantrone] | 0.0024 ± 0.0002 µM | 46 | EC50 (MRC5 cells; [3]): 0.11 ± 0.037 µM |
| CC1=C(/C=C/C(C)=C/C=C/C(C)=C/C(=O)Nc2ccc(O)cc2)C(C)(C)CCC1 [Retinoic acid p-hydroxyanilide] |  |  | EC50 ([1]; read-out: EC50 vs. T. brucei): 2.23 ± 0.27 µM |
| COc1cccc2c1C(=O)c1c(O)c3c(c(O)c1C2=O)C[C@@](O)(C(=O)CO)C[C@@H]3O[C@H]1C[C@H](N)[C@H](O)[C@H](C)O1 [Doxorubicin] |  |  | EC50 (MRC5 cells; Homo sapiens, MRC5, 72 h, read-out: EC50 against MRC5 (control drug)): 0.0859 ± 0.0382 µM |
| [N-]=[N+]=Nc1ccc(C(=O)CSC[C@H](NC(=O)CC[C@H](N)C(=O)O)C(=O)NCC(=O)O)cc1 [S-(p-Azidophenacyl)glutathione] |  |  | EC50 ([1]; read-out: EC50 vs. T. brucei): > 10 µM |
| Buprenorphine |  |  | Activity against T. brucei (in words) [1]: weak activity |
| CCn1cnc2c(Nc3cccc(Cl)c3)nc(N[C@@H]3CCCC[C@@H]3N)nc21.Cl (relative stereo) [CGP-74514A, N^2-(cis-2-Aminocyclohexyl)-N^6-(3-chlorophenyl)-9-ethyl-9H-purine-2,6-diamine HCl] | 0.21 ± 0.0083 µM | 7.1 | EC50 (MRC5 cells; [3]): 1.5 ± 0.62 µM |
| Nc1ccn([C@H]2CC[C@@H](CO)O2)c(=O)n1 [2′,3′-Dideoxycytidine] | > 10 µM |  |  |
| NC[C@@H]1O[C@H](C23CC4CC(CC(C4)C2)C3)Cc2c1ccc(O)c2O (single isomer, unassigned; (-)) [A-77636 hydrochloride] |  |  | EC50 ([1]; read-out: EC50 vs. T. brucei): 2.21 ± 0.15 µM |
| CCN(CC)CCCC(C)Nc1c2ccc(Cl)cc2nc2ccc(OC)cc12 (stereo not drawn) [Quinacrine dihydrochloride] | 0.38 ± 0.013 µM | 5.0 | EC50 (MRC5 cells; [3]): 1.9 ± 0.44 µM |

| Compound | EC50 [1, 2] | Selectivity (MRC5 cells) | also measured |
| --- | --- | --- | --- |
| CN(N=O)c1cc(O)ccc1O [Dephostatin] | > 10 µM |  |  |
| CC[C@H](C)C(=O)O[C@H]1CCC=C2C=C[C@H](C)[C@H](CC[C@@H]3C[C@@H](O)CC(=O)O3)[C@H]21 [Mevastatin] |  | 2.2 | EC50 [1, 6]: 0.94 ± 0.05 µM; EC50 (MRC5 cells; [3]): 2 ± 0.36 µM |
| CC(C)[C@H](CO)Nc1nc(Nc2cccc(Cl)c2)c2ncn(C(C)C)c2n1 [Purvalanol A] | 0.82 ± 0.055 µM | 12 |  |
| Nc1nc(N)nc(Nc2ccc([As]3SCC(CO)S3)cc2)n1 (stereo not drawn) [melarsoprol] |  |  | EC50 [1, 4]: 0.00752 ± 0.00028 µM; EC50 [1, 5]: 0.008 µM |
| Dequalinium analogue, C-14 linker |  | 14 | EC50 ([1]; read-out: EC50 vs. T. brucei): 0.07 ± 0.0046 µM |
| CC[C@]1(O)C[C@H]2CN(CCc3c([nH]c4ccccc34)[C@@](C(=O)OC)(c3cc4c(cc3OC)N(C=O)[C@H]3[C@@](O)(C(=O)OC)[C@H](OC(C)=O)[C@]5(CC)C=CCN6CC[C@]43[C@@H]65)C2)C1 [Vincristine sulfate] |  | 0.02 | EC50 [1, 6]: 0.03 ± 0.001 µM; EC50 (MRC5 cells; [3]): 0.0006 ± 0.001 µM |
| C=C1C(=O)O[C@H]2[C@H]1CC/C(C)=C/CC[C@@]1(C)O[C@@H]21 [Parthenolide] |  |  | EC50 [1, 7]: 1.06 ± 0.08 µM |
| C=CCc1ccccc1OCC(O)CNC1(C)CCC(C(C)(C)NC(=O)CBr)CC1 (stereo not drawn) [Bromoacetyl alprenolol menthane] | 1.26 ± 0.14 µM |  |  |
| Nc1nc2ccc(Cl)cc2c2nc(-c3ccco3)nn12 [CGS-15943, 9-Chloro-2-(2-furyl)[1,2,4]triazolo[1,5-c]quinazolin-5-amine] | 1.97 ± 0.21 µM |  |  |
| O=C(/C=C/c1ccc(O)c(O)c1)OCCc1ccccc1 [Caffeic acid phenethyl ester] | 1.64 ± 0.13 µM |  |  |
| Cc1nc(-c2ccc(-c3ccc(C(=O)N4CCc5cc6c(cc54)C4(CCN(C)CC4)CO6)cc3)c(C)c2)no1 [SB 224289 hydrochloride, 1′-Methyl-5-([2′-methyl-4′-(5-methyl-1,2,4-oxadiazol-3-yl)biphenyl-4-yl]carbonyl)-2,3,6,7-tetrahydro-spiro(furo[2,3-f]indole-3,4′-piperidine)] |  |  | EC50 [1, 7]: 1.35 ± 0.28 µM |
| CCCn1c(=O)c2[nH]c(C3CCCC3)nc2n(CCC)c1=O [8-Cyclopentyl-1,3-dipropylxanthine] | 0.53 ± 0.053 µM | 31 |  |
| CCCCCCCCCCCCC/C=C/[C@@H](O)[C@@H](N)CO [Sphingosine] | 0.82 ± 0.078 µM | 5.7 | EC50 (MRC5 cells; [3]): 4.6 ± 2.5 µM |
| O=C1Cc2c([nH]c3ccc([N+](=O)[O-])cc23)-c2ccccc2N1 [Alsterpaullone] | 0.4 ± 0.04 µM | 1.3 | EC50 (MRC5 cells; [3]): 0.51 ± 0.17 µM |
| CC1(C)CCC2=C(O1)c1ccccc1C(=O)C2=O [Beta-Lapachone] | 0.85 ± 0.13 µM | 10 | EC50 (MRC5 cells; [3]): 8.6 ± 2.9 µM |
| Clc1ccc(C(c2ccc(Cl)cc2)n2cc[n+](CC(OCc3ccc(Cl)cc3Cl)c3ccc(Cl)cc3Cl)c2)cc1 (stereo not drawn) [Calmidazolium chloride] | 0.51 ± 0.066 µM | 13 | EC50 (MRC5 cells; [3]): 6.6 ± 0.75 µM |
| COc1cc2c(CCNC(C)=O)c[nH]c2cc1O [6-Hydroxymelatonin] |  |  | EC50 ([1]; read-out: EC50 vs. T. brucei): 3.31 ± 0.23 µM |
| CC(=O)[C@]1(O)Cc2c(O)c3c(c(O)c2[C@@H](O[C@H]2C[C@H](N)[C@H](O)[C@H](C)O2)C1)C(=O)c1ccccc1C3=O [Idarubicin] | 0.02 ± 0.0015 µM | 3.9 | EC50 (MRC5 cells; [3]): 0.078 ± 0.029 µM |
| CC(=O)O[C@H]1C(=O)[C@@]2(C)[C@H]([C@H](OC(=O)c3ccccc3)[C@]3(O)C[C@H](OC(=O)[C@H](O)[C@@H](NC(=O)c4ccccc4)c4ccccc4)C(C)=C1C3(C)C)[C@]1(OC(C)=O)CO[C@@H]1C[C@@H]2O [Taxol] | 0.0033 ± 7.1e-05 µM | 2 | EC50 (MRC5 cells; [3]): 0.0066 ± 0.0098 µM |
| Oligomycin A |  | 120 | EC50 ([1]; read-out: EC50 vs. T. brucei): 0.15 ± 0.0031 µM; Selectivity / specificity for T. brucei over human fibroblasts (MRC5 cells): greater than 100 fold |
| NC(=O)c1cc(N2CC2)c([N+](=O)[O-])cc1[N+](=O)[O-] [CB 1954, 5-(1-Aziridinyl)-2,4-dinitrobenzamide] | 1.08 ± 0.09 µM |  |  |
| CCCN1CCc2cccc3c2[C@H]1Cc1ccc(O)c(O)c1-3 [R(−)-Propylnorapomorphine hydrochloride] |  |  | EC50 ([1]; read-out: EC50 vs. T. brucei): 1.52 ± 0.21 µM |
| O=C1CC[C@@]2(O)[C@H]3Cc4ccc(O)c5c4[C@@]2(CCN3CC2CC2)[C@H]1O5 [Naltrexone] |  |  | EC50 ([1]; Trypanosoma brucei, read-out: EC50 of opioid receptor ligands against T. brucei): > 100 µM |
